Patent EP0452101B1, “Spiro bridged and unbridged heterocyclic compounds” (ISRAEL INSTITUTE FOR BIOLOGICAL RESEARCH, priority 1990, dated 1991)

Assays:
[1] = Chemical stability (thermal, aqueous solution); format: physicochemical; conditions: free base, monitored with 1H-NMR
From the text: Most of these compounds are relatively stable. […] Its chemical behaviour resembles that of known 2-oxazoline derivatives. […] The formation of the decomposition products can be monitored with ^1H-NMR by inspection at two regions δ 3.3-3.5 (appearance of two doublets) and 1.9-2.0 ppm (appearance of two additional singlets).
The expected decomposition pattern (when e.g., X is O and Y is N) involves opening of the oxazoline ring to form both amide and ester as shown in Scheme E, in which the quinuclidine-derived compounds are depicted illustratively. The formation of two new singlets at δ 1.9-2.0 ppm as expected for R = Me of these two structures are in agreement with this supposition. [drawing 32]
Ring opening is much faster in the presence of dilute hydrochloric acid. […] The tendency to decomposition of such salts complicates the optical separation of compounds such as AF125 and AF123. However, this problem can be overcome by using the method described for the optical separation of the enantiomers of AF125, or alternatively the amino-alcohols such as 3-aminomethylquinuclidin-3-ol can be resolved and the separated enantiomers can then be cyclized using an ester or imidate as already described. In yet another alternative the N-acyl derivatives of (e.g.) 3-aminomethylquinuclidin-3-ol can be resolved and the separated enantiomers can then be cyclized per se as shown in Scheme K: [drawing 33] […]

[2] = test system: Male white mice of the CD-1 strain; experiment: Pharmacodynamic profile and general toxicity, Part B (signs, mortality, LD50); format: in vivo; conditions: Table 10
From the text: Male white mice of the CD-1 strain (Charles River, UK), within the body weight range of 18-26 g, were used throughout this study, carried out on AF123, AF125 and AF125(N).
Furthermore, these initial trials clearly established that the major signs of reactions to treatment consisted primarily of signs characteristic for potential cholinomimetic activity of the test material, such as tremors, salivation, lacrimation, diarrhea, analgesia, hypothermia and vasodilation. […]

M2 muscarinic receptors = molecular target: T1, M2 muscarinic receptors (Rattus norvegicus, UniProt P10980); experiment: Displacement of 3H-QNB from rat cerebellum, 50 mM phosphate buffer; format: binding; conditions: cerebellum
T1 construct: displacing from rat brain homogenates, cerebellum or frontal cortex; from tissue; host or cells: rat cerebellum homogenates
T1 sequence (P10980 1-466): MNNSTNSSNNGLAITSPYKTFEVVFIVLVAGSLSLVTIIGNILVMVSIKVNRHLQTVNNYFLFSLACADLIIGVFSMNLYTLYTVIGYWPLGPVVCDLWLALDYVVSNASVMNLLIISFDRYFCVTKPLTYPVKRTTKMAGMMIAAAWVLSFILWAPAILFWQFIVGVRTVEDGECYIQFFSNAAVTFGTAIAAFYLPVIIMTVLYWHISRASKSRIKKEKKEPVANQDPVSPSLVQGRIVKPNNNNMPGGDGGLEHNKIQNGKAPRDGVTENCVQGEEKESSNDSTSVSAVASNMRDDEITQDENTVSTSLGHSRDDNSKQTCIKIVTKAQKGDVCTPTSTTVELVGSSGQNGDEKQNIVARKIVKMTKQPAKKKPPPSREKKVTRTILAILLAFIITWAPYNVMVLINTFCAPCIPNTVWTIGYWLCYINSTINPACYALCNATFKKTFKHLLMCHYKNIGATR

M1 muscarinic receptor [3] = molecular target: T2, M1 muscarinic receptor (Rattus norvegicus, UniProt P08482); experiment: Displacement of 3H-PZ from rat cerebral cortex, 10 mM phosphate buffer; format: binding; set-up: from tissue; host or cells: rat cerebral cortex homogenates; conditions: for % H / Ki: cortex, Table 4; for Ki: read-out: 3H-PZ-Binding KH (a)
T2 sequence (P08482 1-460): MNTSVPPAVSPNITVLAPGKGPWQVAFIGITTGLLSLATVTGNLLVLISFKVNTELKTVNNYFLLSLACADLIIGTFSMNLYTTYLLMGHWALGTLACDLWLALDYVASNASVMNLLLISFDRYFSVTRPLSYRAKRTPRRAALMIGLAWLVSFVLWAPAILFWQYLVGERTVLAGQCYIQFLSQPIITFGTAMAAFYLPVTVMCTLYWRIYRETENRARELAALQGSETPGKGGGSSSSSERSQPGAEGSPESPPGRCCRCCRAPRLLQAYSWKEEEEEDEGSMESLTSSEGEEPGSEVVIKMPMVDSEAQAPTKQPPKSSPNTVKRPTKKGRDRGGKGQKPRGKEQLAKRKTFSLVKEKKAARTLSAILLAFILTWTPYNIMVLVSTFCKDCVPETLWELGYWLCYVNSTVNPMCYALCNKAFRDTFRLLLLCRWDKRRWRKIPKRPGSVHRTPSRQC

[4] = molecular target: T3, m3 subtype (SK-N-SH cells) (Homo sapiens, UniProt P20309); experiment: PI hydrolysis in SK-N-SH neuroblastoma cells; format: cell-based
T3 construct: endogenous in cells; host or cells: SK-N-SH human neuroblastoma cells
Protocol: (§1) The new compounds AF150, AF151, AF150(S) and AF125 were assayed for their ability to stimulate PI in CHO cells transfected with m1 and m3 receptors, respectively (Buck and Fraser, loc cit), and in cultured human neuroblastoma cells, line SK-N-SH, which express mainly the m3 subtype, but not the m1 subtype (Pinkas-Kramarski et al, Neurosci. Lett. 188: 335-340, 1990; Luthin et al Mol. Pharmacol. 34: 327-333, 1988). These compounds were also assayed on cultured PC12 cells which express mainly m4 subtype receptors and are coupled to inhibition of AC activity (Pinkas-Kramarski et al, loc cit).
(§2) Stimulation of PI breakdown was assayed using the method described by Stein et al (EMBO J. 7: 3031-3035, 1988), and modulation of AC activity was assayed by the method of Stein et al, loc cit and Pinkas-Kramarski et al (FEBS Lett., 239: 174-178, 1988). […]

[5] = test system: CA1 neurons in the hippocampal slice; experiment: Electrophysiological evaluation in rat hippocampal slices
Protocol: In general terms the effects of microdrops of AF150, ACh and PZ were applied to rat hippocampal cells recorded intracellularly. The exact concentrations of the drug at the receptor sites are not known, using this method. However, this method has an advantage over the perfusion method, in that it gives a more correct picture from the electrophysiological point of view (Segal, loc cit).
Intracellular responses to AF150 of CA1 neurons in the hippocampal slice were recorded, using the method of Segal. Small hyperpolarizing current pulses (current traces not shown) were alternated with stimulation of the Schaffer-commissural afferents producing postsynaptic potentials.

M1 muscarinic receptor [6] = molecular target: T2, M1 muscarinic receptor; experiment: Displacement of 3H-PZ from cortical binding sites, Tris/Mn buffer, with and without GppNHp; set-up: from tissue; host or cells: rat cerebral cortex homogenates
From the text: The binding of agonists to M1 muscarinic receptors and the effect of guanylyl imidophosphate (GppNHp). Agonists are known to be coupled with guanine nucleotide binding proteins (G proteins).
Non-hydrolyzable guanine nucleotides such as GppNHp dissociate the G protein from the receptor and decrease the affinity of the receptor for agonists but not for antagonists. […] Molec.
Under these conditions agonists of high efficacy ("full agonists") bind directly to the M1 receptor subtype with two affinities. […] The ratio of low and high affinities (KL/KH) of the M1 receptor may predict the relative efficacies of agonists to activate putative M1 receptor-mediated second messenger systems.
KH, KL, %H and %L are the apparent inhibition constants of the tested ligands for the high and low affinity sites, respectively. G is GppNHp (guanylyl imidodiphosphate), and was used in 0.1 mM concentration. Displacement of ^3H-PZ from cortical binding sites was performed in Tris/Mn buffer (pH 7.4) for one hour at 25°C; the buffer included 1 mM EDTA and 2mM Mn^++ ions. […] The binding data were analyzed using a GraphPAD program and were fitted to one or two components. Values are means from 1-3 experiments carried out in triplicates.

m1 receptors = molecular target: T4, m1 receptors (Rattus norvegicus, UniProt P08482); experiment: PI hydrolysis in CHO cells transfected with m1 receptors; format: cell-based
T4 construct: expressed in transfected cells; host or cells: CHO cells
T4 sequence (P08482 1-460): T2 sequence (P08482 1-460)

M1 muscarinic receptor [7] = molecular target: T2, M1 muscarinic receptor; experiment: Displacement of 3H-QNB from rat cerebral cortex, 50 mM phosphate buffer; format: binding; conditions: cortex, Table 5
m3 receptors = m3 receptors (Rattus norvegicus, UniProt P08483); experiment: PI hydrolysis in CHO cells transfected with m3 receptors; format: cell-based; conditions: CHO m3; tested at 1mM
Protocol: as §1, §2

[8] = molecular target: T5, m4 subtype receptors (PC12 cells) (Rattus norvegicus, UniProt P08485); experiment: Inhibition of adenylate cyclase activity in PC12 cells; format: cell-based
T5 construct: endogenous in cells; host or cells: PC12 cells
T5 sequence (P08485 1-478): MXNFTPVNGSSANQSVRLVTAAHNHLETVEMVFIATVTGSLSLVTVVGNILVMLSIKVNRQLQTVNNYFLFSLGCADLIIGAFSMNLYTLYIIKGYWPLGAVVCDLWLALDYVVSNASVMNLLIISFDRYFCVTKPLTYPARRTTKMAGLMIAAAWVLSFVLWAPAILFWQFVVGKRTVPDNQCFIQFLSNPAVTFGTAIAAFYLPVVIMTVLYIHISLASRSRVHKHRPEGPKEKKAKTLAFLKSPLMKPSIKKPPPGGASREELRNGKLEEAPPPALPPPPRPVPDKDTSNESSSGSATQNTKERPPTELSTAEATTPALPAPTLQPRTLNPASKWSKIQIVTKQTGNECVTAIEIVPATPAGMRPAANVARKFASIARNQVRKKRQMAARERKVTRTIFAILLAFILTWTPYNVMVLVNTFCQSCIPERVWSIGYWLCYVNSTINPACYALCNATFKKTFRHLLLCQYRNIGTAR
Protocol: as §1, §2

muscarinic receptors = experiment: (-)3H-QNB binding to rat cerebral cortex homogenates with and without Cu++ treatment
[9] = 400 mg/kg p.os, animals affected/treated

T3 sequence (P20309 whole entry): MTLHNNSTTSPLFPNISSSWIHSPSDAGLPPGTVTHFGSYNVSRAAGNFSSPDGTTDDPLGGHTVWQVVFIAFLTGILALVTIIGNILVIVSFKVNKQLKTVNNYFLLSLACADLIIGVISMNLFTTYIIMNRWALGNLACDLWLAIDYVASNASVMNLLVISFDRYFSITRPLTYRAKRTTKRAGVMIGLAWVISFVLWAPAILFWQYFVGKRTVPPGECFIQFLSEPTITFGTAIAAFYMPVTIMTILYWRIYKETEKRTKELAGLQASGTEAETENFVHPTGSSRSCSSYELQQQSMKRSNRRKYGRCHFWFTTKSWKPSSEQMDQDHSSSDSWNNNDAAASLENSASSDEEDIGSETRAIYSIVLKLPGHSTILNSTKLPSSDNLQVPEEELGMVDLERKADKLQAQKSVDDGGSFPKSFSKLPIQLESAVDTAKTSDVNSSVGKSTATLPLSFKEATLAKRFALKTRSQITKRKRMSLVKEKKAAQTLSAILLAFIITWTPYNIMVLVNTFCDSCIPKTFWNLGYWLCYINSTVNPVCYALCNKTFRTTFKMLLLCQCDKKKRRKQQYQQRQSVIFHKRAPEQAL
Sequence of m3 receptors (P08483 whole entry): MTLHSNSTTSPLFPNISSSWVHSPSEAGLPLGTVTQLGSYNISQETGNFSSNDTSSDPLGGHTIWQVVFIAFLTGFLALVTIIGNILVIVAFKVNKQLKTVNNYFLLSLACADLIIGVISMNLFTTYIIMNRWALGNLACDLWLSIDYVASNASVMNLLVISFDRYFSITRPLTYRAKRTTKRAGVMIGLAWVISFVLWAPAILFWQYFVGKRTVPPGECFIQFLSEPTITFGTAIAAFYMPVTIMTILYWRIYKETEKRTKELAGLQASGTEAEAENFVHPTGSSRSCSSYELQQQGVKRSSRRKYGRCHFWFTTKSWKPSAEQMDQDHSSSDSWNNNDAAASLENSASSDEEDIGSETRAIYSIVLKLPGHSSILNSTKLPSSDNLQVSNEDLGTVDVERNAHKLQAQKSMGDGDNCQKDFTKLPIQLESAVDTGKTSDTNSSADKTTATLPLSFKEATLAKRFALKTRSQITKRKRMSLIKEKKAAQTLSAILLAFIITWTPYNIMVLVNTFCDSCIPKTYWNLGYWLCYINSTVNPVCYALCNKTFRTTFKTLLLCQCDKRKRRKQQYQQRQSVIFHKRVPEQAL

## CCC1=NCC2(CN3CCC2CC3)O1 (racemic) [AF123, 2-Ethyl spiro(1,3 oxazoline 5,3')quinuclidine]
[1]
  decomposition in aqueous solution: same pattern of decomposition
[2]; 50 mg/kg i.v.
  Mortality no.: 0/5
[2]; 100 mg/kg i.v.
  Mortality no.: 5/5
  Mortality time: 1 min
[2]; 100 mg/kg i.v., animals affected/treated
  Convulsive seizure (Con): 5/5
[2]; 200 mg/kg i.v.
  Mortality no.: 5/5
  Mortality time: immed
[2]; 200 mg/kg p.os
  Mortality no.: 0/5
  Mortality time: 3 min
[2]; 200 mg/kg p.os, animals affected/treated
  Tremors (Tre): 4/5
[2]; 400 mg/kg p.os
  Mortality no.: 5/5
  Mortality time: 3 min
[2]; [9]
  Convulsive seizure (Con): 5/5
  Respiratory distress (Res): 5/5
  Tremors (Tre): 5/5
M2 muscarinic receptors; 3H-QNB-Binding KH (c), Table 4
  Ki: 3900 nM
M2 muscarinic receptors; Table 4
  % H: 100%
M1 muscarinic receptor [3]; KH cerebellum (3H-QNB) : KH cortex (3H-PZ)
  RATIOS c:a: 3.0
M1 muscarinic receptor [3]
  % H: 100%
  Ki: 1300 nM

## CC1OC2(CS1)CN1CCC2CC1 (stereo not drawn) [AF102B, cis-2-methylspiro(1,3-oxathiolane-5',3)quinuclidine, reference compound]
[4]
  block of oxotremorine-M-induced phosphoinositide hydrolysis: completely blocked
[4]; SK-N-SH m3, tested at 1mM
  PI (phosphoinositides hydrolysis): -
[4]; SK-N-SH, read-out: inhibition of the oxotremorine-M signal
  inhibition at 1000 µM: 34%
[4]; even at 1 mM
  stimulation of phosphoinositide hydrolysis: failed to stimulate phosphoinositide hydrolysis
[5]; applied topically by microdrops
  slow AHP (Ca++-dependent K+ conductance): block the slow AHP
[5]; applied topically by microdrops (AF150: 100 µM)
  depolarization: not shown in the case of AF102B
M1 muscarinic receptor [6]; +G (0.1 mM GppNHp), read-out: KH
  Ki: 700 to 1000 nM
M1 muscarinic receptor [6]; +G (0.1 mM GppNHp), read-out: KL
  Ki: 700 to 1000 nM
M1 muscarinic receptor [6]; -G (without GppNHp), read-out: KH
  Ki: 700 to 1000 nM
M1 muscarinic receptor [6]; -G, read-out: KL
  Ki: 700 to 1000 nM
m1 receptors; CHO m1
  PI, % of carbachol effect: 20%
m1 receptors; CHO m1, PI hydrolysis, footnote b
  effective concentration which induces the effect: 30^b µM
m1 receptors; CHO m1, tested at 1mM
  PI (phosphoinositides hydrolysis): +
M1 muscarinic receptor [7]
  % H1: 100%
m3 receptors
  PI (phosphoinositides hydrolysis): -
[8]; PC12 m4
  AC, % of carbachol effect: 40%
[8]; PC12 m4, AC activity, footnote b
  effective concentration which induces the effect: 0.1^b µM
[8]; PC12 m4, tested at 1mM
  AC (adenylate cyclase activity): +
Muscarinic receptors; with Cu++ pretreatment (100 µM, 30 minutes)
  %H (% of high affinity state): 26%
Muscarinic receptors; with Cu++ pretreatment (100 µM, 30 minutes), listed as 4
  %H (% of high affinity state): 26±5%
Muscarinic receptors; without pretreatment
  %H (% of high affinity state): 0%
M2 muscarinic receptors; 3H-QNB-Binding KH2 (c), Table 5
  Ki: 5900 nM
M2 muscarinic receptors; 3H-QNB-Binding KH (c), Table 4
  Ki: 6000 nM
M2 muscarinic receptors; Table 4
  % H: 100%
M2 muscarinic receptors; Table 5
  % H2: 100%
M1 muscarinic receptor [3]
  % H: 100%
  Ki: 1000 nM
